The record followed here is BindingDB's records for doi:10.1021/jm00017a010 (Sapienza University of Rome, 1995).

Where only a bound is given, the exact number is not on record here.

This test addresses T1, Gag-Pol polyprotein [588-1027]/[588-1147] (Human immunodeficiency virus 1, UniProt P04585).
T1 construct: 588-1027; 588-1147
The experiment in a line: HIV-1 RT Assay. The source says: The IC50 of reverse transcriptase is the concentration that inhibits 50% of recombinant HIV-1 RT RNA-directed DNA polymerase activity in vitro.

As usually defined, the IC50 is the concentration needed to halve the response being measured. Higher therefore signals weaker potency. `Cc1cccc(Cc2cc(=O)[nH]c(=S)[nH]2)c1` [6-[(3-methylphenyl)methyl]-2-sulfanylidene-1,2,3,4-tetrahydropyrimidin-4-one]: under “pH 7.8, 37 °C”, the IC50 is above 10 µM.
`CC1(C)C(=O)NC(SC2CCCC2)=N/C1=C/c1ccccc1` [(6E)-2-(cyclopentylsulfanyl)-5,5-dimethyl-6-(phenylmethylidene)-3,4,5,6-tetrahydropyrimidin-4-one] registered an IC50 above 10 µM.
In turn, `CSc1nc(O)cc(Cc2cccc(C)c2)n1` [S-DABO] showed an IC50 (pH 7.8, 37 °C) above 10 µM.
The same measure, in the same setting: the value for `Cc1cccc(Cc2nc(S)nc(O)c2C)c1` [4-Hydroxy-2-mercapto-5-methyl-6-(3-methylbenzyl)pyrimidine] was above 10 µM.
In the case of `CC1(C)C(=O)NC(SC2CCCCC2)=N/C1=C/c1ccccc1` [S-DABO], the IC50 was above 10 µM.
Where the note is “pH 7.8, 37 °C”, `CC(C)Sc1nc(Cc2ccccc2)cc(=O)[nH]1` [S-DABO] returned an IC50 above 10 µM.
Regarding `CSc1nc(Cc2ccccc2)cc(=O)[nH]1` [S-DABO], the IC50 (pH 7.8, 37 °C) is above 10 µM.
On the same count and under the same terms, the value for `Cc1c(O)nc(S)nc1Cc1ccccc1` [6-benzyl-4-hydroxy-2-mercapto-5-methylpyrimidine] was above 10 µM.
